Assay results taken from article PMC6539144, “Discovery of Novel Potential Reversible Peptidyl Arginine Deiminase Inhibitor” (International Journal of Molecular Sciences, 2019).
Like-named read-outs stand apart in the source and are kept apart here.

Assays:
colitis = tested on: colitis; set-up: method as in PMID 21415415; details: cited from earlier work
human neutrophils [1] = assay: NET assay: extracellular DNA release (PicoGreen) from PMA-stimulated neutrophils; format: cell-based; details: 30 µM
Method: Granulocyte-enriched fractions were harvested using a lymphocyte separation medium density gradient (PAN Biotech, Aidenbach, Germany). Neutrophils and erythrocytes were separated after 30 min of incubation with 1% polyvinyl alcohol (POCH, Gliwice, Poland). Neutrophils were collected from the upper layer and after centrifugation (280× g, 10 min), the residual erythrocytes were removed by lysis in water. Cells were then resuspended in serum-free DMEM without phenol red (Gibco, Waltham, MA, USA). To measure the extracellular DNA release, neutrophils were seeded at 2 × 10^6/well in 0.01 mg/mL poly-L-lysine (Sigma-Aldrich) coated 24-well plates and centrifuged (200× g, 5 min). Neutrophils were treated for 1h with DMSO alone, or with either 30 μM or 100 μM of compound 4 or Cl-amidine. Cells were then stimulated with 25 nM PMA (phorbol 12-myristate 13-acetate) or left unstimulated as controls for 3 h at 37 °C, 5% CO2. Following stimulation, the cell medium was collected and the extracellular DNA was quantified using the Quant-iT^TM PicoGreen® dsDNA Reagent (QPG; Invitrogen, Carlsbad, CA, USA). The 1:200 dilution of QPG in TE buffer (10 mM Tris, 1 mM EDTA, pH 7.5) and 90 μL of TE buffer was added to 10 μL of the supernatant containing the extracellular DNA and fluorescence was measured with an excitation wavelength 480 nm and emission wavelength 520 nm.

GST-PAD4 [2] = biological target: T1, GST-PAD4 (Homo sapiens, UniProt Q9UM07); assay: GST-PAD4 inhibitory activity in the presence of serum and synovial fluid; format: biochemical; details: for Inhibitory potential on GST-PAD4 in the presence of serum / Inhibitory activity on GST-PAD4 in the presence of RA synovial fluid: 50 µM compound (Cl-amidine 50 and 200 µM); for Inhibitory potential on GST-PAD4 in the presence of serum: serum diluted 1:3, compared to in vitro conditions; for Inhibitory activity on GST-PAD4 in the presence of RA synovial fluid: synovial fluid diluted 1:3, 1 mM Dansyl-Gly-Arg
T1 construct: made in house
Method: A total of 50 μM of compounds 1 to 6 were pre-incubated with 1 mU of GST-PAD4 for 30 min at 37 °C with serum from healthy blood donors, serum or synovial fluid from patients with RA, serially diluted from 1:1.5 to 1:30 in the assay buffer (100 mM Tris pH 7.5, 10 mM CaCl2). The reaction was then initiated by the addition of 1 mM Dansyl-Gly-Arg and stopped after 1h as described above. The assay included a negative and positive control: a DMSO (no compound) control and a known irreversible compound (Cl-amidine) at 50 and 200 μM. Samples were separated by HPLC.

human neutrophils [3] = assay: NETs imaging assay (DNA and histone H2A immunostaining); format: cell-based; details: 100 µM, PMA stimulation
Method: For the NETs imaging assays, neutrophils were allowed to adhere to poly-L-lysine coated coverslips (5 × 10^5 cells/coverslip) for 30 min at 37 °C, 5% CO2. Neutrophils were then treated for 1 h with DMSO alone, or 100 μM of compound 4 or Cl-amidine. Neutrophils were then stimulated with 25 nM PMA or left unstimulated as controls for 3 h at 37 °C, 5% CO2. Neutrophils were fixed with 3.7% formaldehyde for 10 min, washed three times with PBS and blocked (5% FBS, 1% BSA, 0.05% Tween, 2 mM EDTA in PBS) for 1 h. Cells were washed and treated with 0.1% saponin (Sigma-Aldrich) in PBS for 30 min. Cells were stained first with rabbit polyclonal anti-histone H2A antibody (Abcam), and then with allophycocyanin (APC) F(ab’)2 goat anti-rabbit antibody (Jackson ImmunoResearch Lab Inc., Ely, UK) in the presence of 3% BSA in 0.1% saponin. Cells were counterstained with 1 µg/mL Hoechst 33258 dye (Invitrogen). Images were captured with a fluorescence microscope (Nikon Eclips Ti, Nikon, Konan, Tokyo).

PAD4 = details: cited from earlier work
[4] = tested on: collagen-induced arthritis; details: cited from earlier work
GST-PAD4 [5] = biological target: T1, GST-PAD4; assay: Histone H3 citrullination assay (purified calf thymus histone H3, western blot); format: biochemical; details: 50 µM, purified calf thymus histone H3, 0.5 mM DTT
Method: A total of 50 μM of compounds 1 to 6 were pre-incubated with 1 mU of GST-PAD4 for 30 min at 37 °C in the assay buffer (100 mM Tris pH 7.5, 10 mM CaCl2, 0.5 mM DTT). After that, 5 μg of purified calf thymus histone H3 was added to the reaction mixture and incubated further for 60 min at 37 °C. Three controls were performed in the assay: a DMSO (no compound) control and a known irreversible compound (Cl-amidine) at 50 and 200 μM. The citrullination was assessed by western blot using antibodies specific to citrullinated histone H3.
The protein concentration in each sample was measured (A280nm) and normalized post-extraction. Next, histone proteins were separated in precast Novex^TM 16% Tris-Glycine 1 mm minigels (Invitrogen, Carlsbad, CA, USA). After electrophoresis, proteins were transferred into nitrocellulose membranes (0.2 μm) at 4 °C (transfer buffer: 10 mM CAPS, 20% methanol, pH 11). Membranes were blocked for 1 h at room temperature with 5% milk in TBST (1× Tris Buffered Saline, pH 8.0, with 0.1% Tween 20) and then incubated overnight at 4 °C with rabbit polyclonal anti-H3Cit antibody (Abcam, ab5103, Cambridge, UK) at a 1:1,000 dilution in the blocking solution. […] The signal was recorded with ChemiDoc image analyzer (Bio-Rad Laboratories, Hercules, CA, USA).

GST-PAD4 [6] = biological target: T1, GST-PAD4; assay: GST-PAD4 inhibition assay (Dansyl-Gly-Arg citrullination, HPLC); format: biochemical; details: for Inhibition of GST-PAD4, initial screening: 0–250 µM inhibitor, 0.25 mM Dansyl-Gly-Arg; for Ki / IC50: GST-PAD4 preincubated 30 min with compound, 0.5 mM DTT, 10 mM CaCl2, 0.25 mM Dansyl-Gly-Arg, mean ± S.D., n = 3; for Ki: assuming competitive reversible mechanism; for IC50: linear regression
Method: 1 mU of GST-PAD4 was used in the experiments. To optimize the concentration of the reducing agent, experiments were done using different concentrations of DTT in the assay buffer ranging from 0 to 10 mM and the final concentration for the presented results was 0.5 mM DTT. Following pre-incubation of enzyme in the assay buffer, the reaction was initiated by the addition of 0.25 mM Dansyl-Gly-Arg. The reaction was stopped after 1h (as described above), the sample was separated by HPLC and the relative activity of PAD in each sample was determined by measuring the peak area of the citrullinated Dansyl-Gly-Arg.
The equilibrium inhibition constant (Ki) and IC50 were calculated from the fit of observed PAD activity against the respective compound concentration. Data was analyzed by the built-in Morrisson equation for tight-binding inhibition and represent the mean ± SD from at least three different determinations. IC50 values were determined by the linear regression to the initial fragment of the inhibition curve and are representative of inhibitor concentration required for the 50% reduction in the product release during the reaction.

human neutrophils [7] = assay: Histone H3 citrullination in neutrophils stimulated with calcium ionophore; format: cell-based; details: 50 µM, 4 μM calcium ionophore stimulation
Method: Neutrophils were isolated from human peripheral blood collected in acid citrate dextrose (ACD-A) by first spinning blood on Lymphoprep^TM (Axis Shield, Oslo, Norway), followed by dextran sedimentation using 3% dextran density gradient and hypotonic lysis of erythrocytes. Neutrophil purity was assessed to be >90% by flow cytometry. Cells were resuspended at 2 × 10^6 cells/mL in RPMI-1640 with HEPES (Thermo Fisher Scientific, Waltham, MA, USA) supplemented with 2 mM CaCl2 and pre-treated for 30 min with DMSO alone, 50 μM of compounds 1 to 6 or with either 50 or 200 μM of Cl-amidine. Cells were then stimulated with 4 μM calcium ionophore A23187 (Sigma-Aldrich, St. Louis, MO, USA) or left unstimulated as controls for 15 min at 37 °C, 5% CO2. Following stimulation, acid extraction of histones was performed according to Shechter et al.. […] The presence of citrullination in cellular histones was analyzed by Western blot.
The protein concentration in each sample was measured (A280nm) and normalized post-extraction. […] The signal was recorded with ChemiDoc image analyzer (Bio-Rad Laboratories, Hercules, CA, USA).

HisTag-PPAD = biological target: T2, HisTag-PPAD (Porphyromonas gingivalis, UniProt Q9RQJ2); assay: HisTag-PPAD inhibition assay (Dansyl-Gly-Arg citrullination, HPLC); format: biochemical; details: 0–250 µM inhibitor, 0.25 mM Dansyl-Gly-Arg
T2 construct: made in house

[8] = 50 µM compound, serum diluted 1:3, 1 mM Dansyl-Gly-Arg
[9] = PAD4-specific reversible inhibitors, read-out: IC50

T1 sequence (Q9UM07 whole entry): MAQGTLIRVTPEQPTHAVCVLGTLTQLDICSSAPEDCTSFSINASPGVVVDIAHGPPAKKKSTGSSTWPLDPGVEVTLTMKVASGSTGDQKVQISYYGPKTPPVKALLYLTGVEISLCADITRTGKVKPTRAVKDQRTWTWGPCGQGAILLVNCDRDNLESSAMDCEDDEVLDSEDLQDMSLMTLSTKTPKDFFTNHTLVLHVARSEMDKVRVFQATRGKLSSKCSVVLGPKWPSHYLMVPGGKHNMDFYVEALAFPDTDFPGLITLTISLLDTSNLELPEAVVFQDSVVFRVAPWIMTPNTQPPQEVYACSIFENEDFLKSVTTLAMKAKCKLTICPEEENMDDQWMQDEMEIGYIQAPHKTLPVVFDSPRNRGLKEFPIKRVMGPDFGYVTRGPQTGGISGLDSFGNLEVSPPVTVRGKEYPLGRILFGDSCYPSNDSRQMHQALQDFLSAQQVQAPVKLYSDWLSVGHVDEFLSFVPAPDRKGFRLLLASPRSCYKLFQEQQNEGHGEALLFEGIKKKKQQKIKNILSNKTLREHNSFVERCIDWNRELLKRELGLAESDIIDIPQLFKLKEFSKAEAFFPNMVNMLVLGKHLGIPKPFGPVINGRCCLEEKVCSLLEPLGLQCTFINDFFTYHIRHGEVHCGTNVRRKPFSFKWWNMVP
T2 sequence (Q9RQJ2 44-556): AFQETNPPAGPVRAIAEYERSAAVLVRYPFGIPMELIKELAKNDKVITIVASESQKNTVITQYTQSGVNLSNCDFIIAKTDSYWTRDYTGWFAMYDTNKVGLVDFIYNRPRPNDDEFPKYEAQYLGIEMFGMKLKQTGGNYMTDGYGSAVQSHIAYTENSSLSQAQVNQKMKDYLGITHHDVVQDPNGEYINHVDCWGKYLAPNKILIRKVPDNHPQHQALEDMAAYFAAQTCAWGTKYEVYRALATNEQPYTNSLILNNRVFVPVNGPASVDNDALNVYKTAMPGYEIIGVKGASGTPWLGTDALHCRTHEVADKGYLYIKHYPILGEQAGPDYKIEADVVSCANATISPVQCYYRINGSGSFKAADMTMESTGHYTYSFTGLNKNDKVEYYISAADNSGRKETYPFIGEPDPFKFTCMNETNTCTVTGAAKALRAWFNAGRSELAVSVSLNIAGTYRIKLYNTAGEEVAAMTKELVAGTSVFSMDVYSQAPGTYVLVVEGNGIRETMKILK

N=C(CCl)NCCC[C@H](NC(=O)c1ccccc1)C(N)=O [Cl-amidine, N-α-Benzoyl-N5-(2-Chloro-1-Iminoethyl)-l-Ornithine Amide, reference compound]
Clinical signs and symptoms of colitis (colitis): reduce clinical signs and symptoms of colitis
Inhibition of DNA release (NETs) from PMA-stimulated neutrophils (human neutrophils [1]): inhibited this effect
Inhibitory potential on GST-PAD4 in the presence of serum (GST-PAD4 [2]): partially losing its inhibitory potential
Inhibitory activity on GST-PAD4 in the presence of RA synovial fluid (GST-PAD4 [2]): ineffective
NET formation visualized by DNA and histone H2A immunostaining (human neutrophils [3]): blocked the NET formation
Severity of murine collagen-induced arthritis [4]: decrease in the severity
Inhibition of GST-PAD4-mediated citrullination of histone H3 (western blot) (GST-PAD4 [5]): not effective

Cc1ccc(/C=c2/sc3ncnn3c2=O)o1 [Compound 1]
Inhibitory activity on GST-PAD4 in the presence of RA synovial fluid (GST-PAD4 [2]): did not show any detectable inhibitory activity
Inhibitory activity on GST-PAD4 in the presence of serum from RA patients (GST-PAD4 [2]; [8]): did not show any detectable inhibitory activity
Inhibitory activity on GST-PAD4 in the presence of serum from healthy donors (GST-PAD4 [2]; [8]): did not show any detectable inhibitory activity
Inhibition of GST-PAD4, initial screening (GST-PAD4 [6]): no inhibition

Cc1ccc(/C=c2/sc3ncnn3c2=O)o1 [Compound 2]
Inhibition of histone H3 citrullination in neutrophils (western blot) (human neutrophils [7]): ineffective
Inhibitory potential on GST-PAD4 in the presence of serum (GST-PAD4 [2]): retained their inhibitory potential
Inhibition of GST-PAD4, initial screening (GST-PAD4 [6]): partially inhibited
Ki (GST-PAD4 [6]): 940 ± 310 nM
IC50 (GST-PAD4 [6]): 1400 ± 260 nM
Inhibition of HisTag-PPAD (HisTag-PPAD): no effect

FC(F)(F)c1cc(SCc2ccc(Cl)c(Cl)c2)nc2cc3c(cc12)OCO3 [Compound 4]
Inhibition of histone H3 citrullination in neutrophils (western blot) (human neutrophils [7]): visibly limited
Inhibition of DNA release (NETs) from PMA-stimulated neutrophils (human neutrophils [1]): limited ability to block DNA release
Inhibitory potential on GST-PAD4 in the presence of serum (GST-PAD4 [2]): retained their inhibitory potential
Inhibitory activity on GST-PAD4 in the presence of serum from RA patients (GST-PAD4 [2]; [8]): did not diminish further
NET formation visualized by DNA and histone H2A immunostaining (human neutrophils [3]): blocked the NET formation
Inhibition of GST-PAD4, initial screening (GST-PAD4 [6]): partially inhibited
Ki (GST-PAD4 [6]): 1000 ± 160 nM
IC50 (GST-PAD4 [6]): 1880 ± 260 nM
Inhibition of GST-PAD4-mediated citrullination of histone H3 (western blot) (GST-PAD4 [5]): significantly hampered
Inhibition of HisTag-PPAD (HisTag-PPAD): no effect

CCn1c(-c2nc3cc(C(=O)N4CCCC(N)C4)cc(OC)c3n2C)cc2cccnc21 (stereo not drawn) [GSK199]
IC50 (PAD4; [9]): 200 nM

CN(C)c1ccc(O)c2c1C[C@H]1C[C@H]3[C@H](N(C)C)C(O)=C(C(N)=O)C(=O)[C@@]3(O)C(O)=C1C2=O [minocycline]
IC50 (PAD4; reversible inhibitors): millimolar

[H]/N=C(/N)N[C@H]1[C@H](O)[C@@H](O)[C@H](O[C@@H]2O[C@@H](C)[C@](O)(C=O)[C@H]2O[C@@H]2O[C@@H](CO)[C@H](O)[C@@H](O)[C@@H]2NC)[C@@H](N/C(N)=N\[H])[C@@H]1O [streptomycin]
IC50 (PAD4; reversible inhibitors): millimolar

CC(=O)O[C@H]1C(=O)[C@@]2(C)[C@H]([C@H](OC(=O)c3ccccc3)[C@]3(O)C[C@H](OC(=O)[C@H](O)[C@@H](NC(=O)c4ccccc4)c4ccccc4)C(C)=C1C3(C)C)[C@]1(OC(C)=O)CO[C@@H]1C[C@@H]2O [taxol]
IC50 (PAD4; reversible inhibitors): millimolar
